Results: US8962681B2, “Use of aminoacetonitrile derivatives against endoparasites” (Zoetis LLC, priority 2011, dated 2015)

System: Dirofilaria immitis microfilariae
Assay: in vitro microwell motility assay against heartworm microfilariae
Format: cell-based
Conditions: microfilaria from canine blood, 384 well plate, 72 hours incubation at 37° C. and 5% CO2, LemnaTec Scanalyzer

**Q.** How did the “ED50 (dose at which the overall microfilaria motility was reduced by 50% compared to that of an untreated control)” value turn out when COc1c(F)cc(Oc2ccc(C#N)cc2OCC(C)(C#N)NC(=O)c2ccc(S(F)(F)(F)(F)F)cc2)cc1F (stereo not drawn) [test compound 78, N-{1-cyano-2-[5-cyano-2-(3,5-difluoro-4-methoxyphenoxy)phenoxy]-1-methylethyl}-4-(pentafluorothio)benzamide] was run?
**A.** 1 µM

**Q.** COc1cc(O)ccc1Oc1ccc(C#N)cc1OCC(C)(C#N)NC(=O)c1ccc(S(F)(F)(F)(F)F)cc1 (stereo not drawn) [test compound 79, N-{1-cyano-2-[5-cyano-2-(4-hydroxy-2-methoxyphenoxy)phenoxy]-1-methylethyl}-4-(pentafluorothio)benzamide] was tested. Which “ED50 (dose at which the overall microfilaria motility was reduced by 50% compared to that of an untreated control)” value did it give?
**A.** 10 µM

**Q.** How did the “ED50 (dose at which the overall microfilaria motility was reduced by 50% compared to that of an untreated control)” value turn out when Cc1ccc(Oc2ccc(C#N)cc2OCC(C)(C#N)NC(=O)c2ccc(S(F)(F)(F)(F)F)cc2)c(Cl)c1 (stereo not drawn) [test compound 71, N-{2-[2-(2-chloro-4-methylphenoxy)-5-cyanophenoxy]-1-cyano-1-methylethyl}-4-(pentafluorothio)benzamide] was run?
**A.** 1 µM

**Q.** How did the “ED50 (dose at which the overall microfilaria motility was reduced by 50% compared to that of an untreated control)” value turn out when CSc1ccc(COCC(C)(C#N)NC(=O)c2ccc(S(F)(F)(F)(F)F)cc2)cc1 (stereo not drawn) [test compound 53, N-(1-cyano-1-methyl-2-{[4-(methylthio)benzyl]oxy}ethyl)-4-(pentafluorothio)benzamide] was run?
**A.** 10 µM

**Q.** Which “ED50 (dose at which the overall microfilaria motility was reduced by 50% compared to that of an untreated control)” value does the source give for CC(C#N)(Cc1ccc(C#N)cc1Cl)NC(=O)c1ccc(S(F)(F)(F)(F)F)cc1 (stereo not drawn) [test compound 90, N-[2-(2-chloro-4-cyanophenyl)-1-cyano-1-methylethyl]-4-(pentafluorothio)benzamide] here?
**A.** 33 µM

**Q.** With CC(C#N)(COc1cc(C#N)ccc1OC(F)(F)F)NC(=O)c1ccc(S(F)(F)(F)(F)F)cc1 (stereo not drawn) [test compound 55, N-{1-cyano-2-[5-cyano-2-(trifluoromethoxy)phenoxy]-1-methylethyl}-4-(pentafluorothio)benzamide] as the compound, how does the “ED50 (dose at which the overall microfilaria motility was reduced by 50% compared to that of an untreated control)” value read?
**A.** 10 µM

**Q.** Cc1cc(C#N)ccc1OCC(C)(C#N)NC(=O)c1ccc(S(F)(F)(F)(F)F)cc1 (stereo not drawn) [test compound 40, N-[1-cyano-2-(4-cyano-2-methylphenoxy)-1-methylethyl]-4-(pentafluorothio)-benzamide] was tested. Which “ED50 (dose at which the overall microfilaria motility was reduced by 50% compared to that of an untreated control)” value did it give?
**A.** 10 µM

**Q.** How did the “ED50 (dose at which the overall microfilaria motility was reduced by 50% compared to that of an untreated control)” value turn out when COc1cc(F)c(Oc2ccc(C#N)cc2OCC(C)(C#N)NC(=O)c2ccc(S(F)(F)(F)(F)F)cc2)c(F)c1 (stereo not drawn) [test compound 77, N-{1-cyano-2-[5-cyano-2-(2,6-difluoro-4-methoxyphenoxy)phenoxy]-1-methylethyl}-4-(pentafluorothio)benzamide] was run?
**A.** 10 µM

**Q.** Which “ED50 (dose at which the overall microfilaria motility was reduced by 50% compared to that of an untreated control)” value does the source give for CC(C#N)(COc1cccc(Cl)c1C(F)(F)F)NC(=O)c1ccc(S(F)(F)(F)(F)F)cc1 (stereo not drawn) [test compound 50, N-{2-[3-chloro-2-(trifluoromethyl)phenoxy]-1-cyano-1-methylethyl}-4-(pentafluorothio)benzamide] here?
**A.** 33 µM

**Q.** CC(C#N)(COc1ccc(-c2cccnc2)cc1C(F)(F)F)NC(=O)c1ccc(S(F)(F)(F)(F)F)cc1 (stereo not drawn) [test compound 82, N-{1-cyano-1-methyl-2-[4-pyridin-3-yl-2-(trifluoromethyl)phenoxy]ethyl}-4-(pentafluorothio)benzamide] was tested. Which “ED50 (dose at which the overall microfilaria motility was reduced by 50% compared to that of an untreated control)” value did it give?
**A.** 10 µM

**Q.** Which “ED50 (dose at which the overall microfilaria motility was reduced by 50% compared to that of an untreated control)” value does the source give for CC(C#N)(COc1cc(C#N)ccc1C(F)(F)F)NC(=O)c1ccc(S(F)(F)(F)(F)F)cc1 (stereo not drawn) [test compound 3, N-{1-cyano-2-[5-cyano-2-(trifluoromethyl)phenoxy]-1-methylethyl}-4-(pentafluorothio)benzamide] here?
**A.** 10 µM

**Q.** How did the “ED50 (dose at which the overall microfilaria motility was reduced by 50% compared to that of an untreated control)” value turn out when CC(C#N)(COc1cc(C#N)ccc1Oc1ccc(C(F)(F)F)cc1)NC(=O)c1ccc(S(F)(F)(F)(F)F)cc1 (stereo not drawn) [test compound 67, N-(1-cyano-2-{5-cyano-2-[4-(trifluoromethyl)phenoxy]phenoxy}-1-methylethyl)-4-(pentafluorothio)benzamide] was run?
**A.** 1 µM

**Q.** For CC(C#N)(COc1cc(F)c(F)cc1Br)NC(=O)c1ccc(S(F)(F)(F)(F)F)cc1 (stereo not drawn) [test compound 58, N-[2-(2-bromo-4,5-difluorophenoxy)-1-cyano-1-methylethyl]-4-(pentafluorothio)benzamide], which “ED50 (dose at which the overall microfilaria motility was reduced by 50% compared to that of an untreated control)” value is on record?
**A.** 33 µM

**Q.** Which “ED50 (dose at which the overall microfilaria motility was reduced by 50% compared to that of an untreated control)” value does the source give for CC(C#N)(COc1cc(Br)ccc1C#N)NC(=O)c1ccc(S(F)(F)(F)(F)F)cc1 (stereo not drawn) [test compound 36, N-[2-(5-bromo-2-cyanophenoxy)-1-cyano-1-methylethyl]-4-(pentafluorothio)-benzamide] here?
**A.** 10 µM

**Q.** For CC(C#N)(COCc1ccc(C(F)(F)F)cc1)NC(=O)c1ccc(S(F)(F)(F)(F)F)cc1 (stereo not drawn) [test compound 84, N-(1-cyano-1-methyl-2-{[4-(trifluoromethyl)benzyl]oxy}ethyl)-4-(pentafluorothio)benzamide], which “ED50 (dose at which the overall microfilaria motility was reduced by 50% compared to that of an untreated control)” value is on record?
**A.** 3.3 µM

**Q.** For CC(C#N)(COc1c(F)cc(C#N)cc1C(F)(F)F)NC(=O)c1ccc(S(F)(F)(F)(F)F)cc1 (stereo not drawn) [test compound 26, N-{1-cyano-2-[4-cyano-2-fluoro-6-(trifluoromethyl)phenoxy]-1-methylethyl}-4-(pentafluorothio)benzamide], which “ED50 (dose at which the overall microfilaria motility was reduced by 50% compared to that of an untreated control)” value is on record?
**A.** 10 µM

**Q.** For CC(C#N)(COc1ccc(Cl)cc1F)NC(=O)c1ccc(S(F)(F)(F)(F)F)cc1 (stereo not drawn) [test compound 20, N-[2-(4-chloro-2-fluorophenoxy)-1-cyano-1-methylethyl]-4-(pentafluorothio)-benzamide], which “ED50 (dose at which the overall microfilaria motility was reduced by 50% compared to that of an untreated control)” value is on record?
**A.** 10 µM

**Q.** For CC(C#N)(COc1ccc(F)cc1Br)NC(=O)c1ccc(S(F)(F)(F)(F)F)cc1 (stereo not drawn) [test compound 31, N-[2-(2-bromo-4-fluorophenoxy)-1-cyano-1-methylethyl]-4-(pentafluorothio)-benzamide], which “ED50 (dose at which the overall microfilaria motility was reduced by 50% compared to that of an untreated control)” value is on record?
**A.** 10 µM

**Q.** With CC(C#N)(COc1cc(C#N)cc(C(F)(F)F)c1)NC(=O)c1ccc(S(F)(F)(F)(F)F)cc1 (stereo not drawn) [test compound 5, N-{1-cyano-2-[3-cyano-5-(trifluoromethyl)phenoxy]-1-methylethyl}-4-(pentafluorothio)benzamide] as the compound, how does the “ED50 (dose at which the overall microfilaria motility was reduced by 50% compared to that of an untreated control)” value read?
**A.** 3.3 µM

**Q.** COc1ccc(Oc2ccc(C#N)cc2OCC(C)(C#N)NC(=O)c2ccc(S(F)(F)(F)(F)F)cc2)c(Cl)c1 (stereo not drawn) [test compound 75, N-{2-[2-(2-chloro-4-methoxyphenoxy)-5-cyanophenoxy]-1-cyano-1-methylethyl}-4-(pentafluorothio)benzamide] was tested. Which “ED50 (dose at which the overall microfilaria motility was reduced by 50% compared to that of an untreated control)” value did it give?
**A.** 3.3 µM

**Q.** How did the “ED50 (dose at which the overall microfilaria motility was reduced by 50% compared to that of an untreated control)” value turn out when COc1ccc(OCC(C)(C#N)NC(=O)c2ccc(S(F)(F)(F)(F)F)cc2)cc1C#N (stereo not drawn) [test compound 41, N-[1-cyano-2-(3-cyano-4-methoxyphenoxy)-1-methylethyl]-4-(pentafluorothio)-benzamide] was run?
**A.** 33 µM
